Data taken from US9758459B2, “Allosteric modulators of factor XIa as anticoagulant agents” (VIRGINIA COMMONWEALTH UNIVERSITY, priority 2012, dated 2017).
Where “and” joins values, the source holds several entries; their conditions need not be identical. Identical values can stand only once. Like-named read-outs stand apart in the source and are kept apart here.

Key:
Assay type in all cases: biochemical
[1] = target: T1, human factor XIa (Homo sapiens, UniProt P03951); assay: Direct inhibition of factor XIa, chromogenic substrate S-2366 hydrolysis assay
T1 construct: purchased Haematologic Technologies (Essex Junction, Vt.); host or cells: human plasma
Description: Solvent A consisted of 25 mM n-hexylamine in water containing 0.1% (v/v) formic acid, while solvent B consisted of 25 mM n-hexylamine in acetonitrile-water mixture (3:1 v/v) containing 0.1% (v/v) formic acid. […] The sample was first monitored for absorbance in the range of 190-400 nm and then directly introduced into the mass spectrometer. ESI-MS detection was performed in positive ion mode for which the capillary voltage was 4 kV, cone voltage was 20 V, desolvation temperature was 350° C. and nitrogen gas flow was maintained at 650 L/hr. Mass scans were collected in the range of 1000-2048 amu within 0.25 s and several of these added to enhanced signal-to-noise ratio. Direct Inhibition of Factor XIa. […] After 10 min incubation, 5 μL factor XIa substrate (345 μM) was rapidly added and the residual FXIa activity was measured from the initial rate of increase in absorbance at 405 nm. […] Relative residual FXIa activity at each concentration of the inhibitor was calculated from the ratio of FXIa activity in the presence and absence of the inhibitor. Logistic equation 1 was used to fit the dose-dependence of residual protease activity to obtain the potency (IC50) and efficacy (ΔY) of inhibition.
Direct Inhibition of Factor XIa by Sulfated QAOs was performed as described in Example 1.
The ability of the sulfated inositol analogs to inhibit factor XIa was studied using the in vitro assay described in Example 1. In this assay, the factor XIa enzyme is anticipated to hydrolyze a particular peptide linkage in the corresponding peptide substrate releasing p-nitroaniline which absorbs at wavelength of 405 nm giving a line slope corresponds to the enzyme activity. The line slope of no inhibitor status is considered as a reference slope and it depends on the relative concentrations of factor XIa enzyme and its substrate. Factor XIa enzyme concentration was decided to get appropriate reference slope of approximately 25-35, whereas the substrate concentration was set to be larger than its affinity to factor XIa enzyme under equilibrium condition, Km. In presence of potential factor XIa inhibitor, the enzyme capacity to hydrolyze the designated peptide linkage in the substrate gets diminished or completely abolished depending on the inhibitor concentration and efficacy. […] Such decreased slope reflects a drop in the catalytic enzyme activity of factor XIa.

[2] = tested on: human plasma; assay: Activated partial thromboplastin time (APTT) plasma clotting assay; conditions: human plasma, concentration doubling clotting time
Description: (§1) Plasma clotting assays, prothrombin and activated partial thromboplastin time (PT and APTT, respectively), are routinely used to assess the anticoagulation potential of new enzyme inhibitors in an in vitro setting. Whereas PT measures the effect of an inhibitor on the extrinsic pathway of coagulation, APTT measures the effect on the intrinsic pathway.
(§2) Prothrombin Time (PT) and Activated Partial Thromboplastin Time (APTT) were assessed as described in Example 1.

[3] = tested on: human plasma; assay: Prothrombin time (PT) plasma clotting assay; conditions: for 2 × PT: concentration doubling clotting time
Description: as §1, §2

[4] = target: T2, FXIa wild type (FXIa-WT) (Homo sapiens, UniProt P03951); assay: Michaelis-Menten kinetics of S-2366 hydrolysis by full-length factor XIa; conditions: 14S 135 μM, pH 7.4, 37° C.
T2 construct: made in house; host or cells: HEK-293
Description: Plasma FIX (500 nM) was incubated with human FXIa (3 nM) in 50 mM Hepes buffer, pH 7.4, containing 125 mM NaCl, 5 mM CaCl2, and 0.1 mg/mL bovine serum albumin at 24° C. […] The primary antibody was goat anti-human FIX polyclonal IgG (Enzyme Research Laboratories, South Bend, Tenn.), and the secondary antibody was horseradish peroxidase-conjugated anti-goat IgG. Detection was by chemiluminescence. […] The inhibition profile was determined over a range of inhibitor concentrations to determine the IC50 of the enzyme-inhibitor complex. The KM of the substrate for its enzyme was used to identify the concentration of the substrate to be used for inhibition studies. […] Active site concentrations for preparations of FXIa were determined by titrations with human antithrombin in an S-2366 cleavage assay. The reaction was monitored using a SpectraMax 340 microtiter plate reader (Molecular Devices Corp., Sunnyvale, Calif.) with a reaction volume of 100 μL and path length of 3 mm. Each assay was performed in triplicate. The concentration of S-2366 was measured using an absorption coefficient of 8,266 M-1cm-1 at λ342 nm, while the free p-nitroaniline concentration was calculated using an absorption coefficient of 9,933 M cm^−1 at λ405 nm. The data was fitted using the standard Michaelis-Menten equation to determine the KM and VMAX. Results

[5] = sulfated QAOs, pH 7.4, 37° C., read-out: IC50 (converted)

T1 sequence (P03951 19-387 limits assumed): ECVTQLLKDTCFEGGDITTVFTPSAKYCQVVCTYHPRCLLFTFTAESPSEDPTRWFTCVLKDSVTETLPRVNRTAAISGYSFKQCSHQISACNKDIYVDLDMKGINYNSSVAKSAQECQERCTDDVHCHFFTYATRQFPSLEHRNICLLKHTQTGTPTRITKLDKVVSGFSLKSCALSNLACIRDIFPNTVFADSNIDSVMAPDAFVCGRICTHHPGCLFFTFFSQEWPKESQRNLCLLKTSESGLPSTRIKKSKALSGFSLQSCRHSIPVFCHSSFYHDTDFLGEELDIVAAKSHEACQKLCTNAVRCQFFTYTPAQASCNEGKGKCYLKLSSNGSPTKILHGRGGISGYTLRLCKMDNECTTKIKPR
T1 sequence (P03951 388-625 limits assumed): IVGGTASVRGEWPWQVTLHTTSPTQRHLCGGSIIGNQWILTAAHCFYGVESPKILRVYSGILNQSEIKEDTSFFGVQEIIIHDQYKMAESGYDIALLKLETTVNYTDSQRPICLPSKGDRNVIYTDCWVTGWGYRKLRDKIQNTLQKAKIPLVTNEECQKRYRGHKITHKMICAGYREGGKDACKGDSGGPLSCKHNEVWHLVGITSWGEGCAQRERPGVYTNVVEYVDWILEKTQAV
T2 sequence (P03951 19-387 limits assumed): as the sequence (P03951 19-387 limits assumed) above
T2 sequence (P03951 388-625 limits assumed): as the sequence (P03951 388-625 limits assumed) above

| SMILES | IC50 [1, 5] | ΔY % (efficacy) ([1]; sulfated QAOs) | also measured |
| --- | --- | --- | --- |
| O=C(OC[C@H]1O[C@@H](OC(=O)c2cc(O)c(O)c(O)c2)[C@H](OC(=O)c2cc(O)c(O)c(O)c2)[C@@H](OC(=O)c2cc(O)c(O)c(O)c2)[C@@H]1OC(=O)c1cc(O)c(O)c(O)c1)c1cc(O)c(O)c(O)c1 [Inhibitor 5, pentagalloyl glucopyranoside, reference compound] | – | – | inhibition of FXIa proteolytic activity ([1]; highest concentration tested (300 μM)): completely inactive |
| COc1cc(-c2nc3ccccc3c(=O)n2CCCCn2cc(Cn3c(-c4ccc(OS(=O)(=O)O)c(OC)c4)nc4ccccc4c3=O)nn2)ccc1OS(=O)(=O)O [Inhibitor 10S] | 139 ± 1 µM | 95 ± 1% | – |
| CC(=O)Oc1cc(OS(=O)(=O)O)cc(-c2nc3ccccc3c(=O)n2CCCCn2cc(Cn3c(-c4cc(OS(=O)(=O)O)cc(OS(=O)(=O)O)c4)nc4ccccc4c3=O)nn2)c1 [Inhibitor 19S] | 273 ± 3 µM | 91 ± 2% | – |
| O=c1c2ccccc2nc(-c2cc(OS(=O)(=O)O)cc(OS(=O)(=O)O)c2)n1CCCCn1cc(Cn2c(-c3cc(OS(=O)(=O)O)cc(OS(=O)(=O)O)c3)nc3ccccc3c2=O)nn1 [Inhibitor 20S] | > 1000 µM | – | – |
| COc1cc(OS(=O)(=O)O)cc2oc(-c3ccc(OS(=O)(=O)O)c(OCc4cn(CCCCn5c(-c6cccc(OS(=O)(=O)O)c6)nc6ccccc6c5=O)nn4)c3)c(OS(=O)(=O)O)c(=O)c12 [Inhibitor 25S] | > 1000 µM | – | – |
| COc1cc(-c2nc3ccccc3c(=O)n2CCCCn2cc(COc3cc(-c4oc5cc(OS(=O)(=O)O)cc(OC)c5c(=O)c4OS(=O)(=O)O)ccc3OS(=O)(=O)O)nn2)ccc1OS(=O)(=O)O [Inhibitor 26S] | 216 µM | – | – |
| O=c1c2ccccc2nc(-c2ccc(OS(=O)(=O)O)cc2)n1Cc1cn(CCn2cc(Cn3c(-c4ccc(OS(=O)(=O)O)cc4)nc4ccccc4c3=O)nn2)nn1 [Inhibitor 28S] | – | 98 ± 3% | – |
| O=c1c2ccccc2nc(-c2ccc(OS(=O)(=O)O)cc2)n1CCCCCn1nncc1Cn1c(-c2ccc(OS(=O)(=O)O)cc2)nc2ccccc2c1=O [Inhibitor 29S] | 94 µM and 90 µM | 94 ± 1% | – |
| O=C(OC1C(OC(=O)c2cc(OS(=O)(=O)O)cc(OS(=O)(=O)O)c2)C(OC(=O)c2cc(OS(=O)(=O)O)cc(OS(=O)(=O)O)c2)C(OC(=O)c2cc(OS(=O)(=O)O)cc(OS(=O)(=O)O)c2)C(OC(=O)c2cc(OS(=O)(=O)O)cc(OS(=O)(=O)O)c2)C1OC(=O)c1cc(OS(=O)(=O)O)cc(OS(=O)(=O)O)c1)c1cc(OS(=O)(=O)O)cc(OS(=O)(=O)O)c1 (stereo not drawn) [SMI, Sulfated hexa-substituted myo-inositol] | – | – | IC50 ([1]; read-out: FXIa-IC50): 0.09 µM |

The next lines start with results.

| IC50 [1, 5] | ΔY % (efficacy) ([1]; sulfated QAOs) | SMILES | also measured |
| --- | --- | --- | --- |
| > 1000 µM | – | CC(=O)Oc1cccc(-c2nc3ccccc3c(=O)n2Cc2cn(CCCCn3c(-c4cccc(OS(=O)(=O)O)c4)nc4ccccc4c3=O)nn2)c1 [Inhibitor 7S] | factor XIa inhibition (in words) ([1]; pH 7.4, 37° C.): inactive |
| – | 100 ± 6% | O=c1c2ccccc2nc(-c2cccc(OS(=O)(=O)O)c2)n1CCCCn1cc(Cn2c(-c3cccc(OS(=O)(=O)O)c3)nc3ccccc3c2=O)nn1 [Inhibitor 8S] | – |
| 153 µM | 96 ± 1% | CC(=O)Oc1cc(OS(=O)(=O)O)cc(-c2nc3ccccc3c(=O)n2Cc2cn(CCCCn3c(-c4cccc(OS(=O)(=O)O)c4)nc4ccccc4c3=O)nn2)c1 [Inhibitor 9S] | – |
| – | 91 ± 4% | O=c1c2ccccc2nc(-c2cccc(OS(=O)(=O)O)c2)n1CCCn1cc(Cn2c(-c3cccc(OS(=O)(=O)O)c3)nc3ccccc3c2=O)nn1 [Inhibitor 11S] | – |
| 159 ± 2 µM | 88 ± 3% | O=c1c2ccccc2nc(-c2ccc(OS(=O)(=O)O)cc2)n1CCCCn1cc(Cn2c(-c3cccc(OS(=O)(=O)O)c3)nc3ccccc3c2=O)nn1 [Inhibitor 12S] | – |
| 82 µM and ~80 µM | 91 ± 2% | O=c1c2ccccc2nc(-c2ccc(OS(=O)(=O)O)cc2)n1CCCCn1cc(Cn2c(-c3ccc(OS(=O)(=O)O)cc3)nc3ccccc3c2=O)nn1 [Inhibitor 13S] | 2 × APTT [2]: 979 µM; concentration for 2-fold increase in PT [3]: about 1.12 mM; 2 × PT [3]: 1119 µM |
| 91 µM | 103 ± 5% | O=c1c2ccccc2nc(-c2cccc(OS(=O)(=O)O)c2)n1CCCCn1cc(Cn2c(-c3ccc(OS(=O)(=O)O)cc3)nc3ccccc3c2=O)nn1 [Inhibitor 14S] | VMAX [4]: 5.1±0.5 mAU/min |
| 59 µM | 89 ± 2% | O=c1c2ccccc2nc(-c2ccc(OS(=O)(=O)O)cc2)n1CCCCCn1cc(Cn2c(-c3ccc(OS(=O)(=O)O)cc3)nc3ccccc3c2=O)nn1 [Inhibitor 15S] | 2 × APTT [2]: 1062 µM; 2 × PT [3]: 1684 µM |
| 182 ± 1 µM | 88 ± 5% | COc1cc(-c2nc3ccccc3c(=O)n2CCCCn2cc(Cn3c(-c4cccc(OS(=O)(=O)O)c4)nc4ccccc4c3=O)nn2)ccc1OS(=O)(=O)O [Inhibitor 17S] | – |
| 213 ± 2 µM | 93 ± 2% | O=c1c2ccccc2nc(-c2cccc(OS(=O)(=O)O)c2)n1CCCCn1cc(Cn2c(-c3cc(OS(=O)(=O)O)cc(OS(=O)(=O)O)c3)nc3ccccc3c2=O)nn1 [Inhibitor 18S] | – |
